Earlier results, collected in PubChem BioAssay AID1259409 (Chemical Carcinogenesis Research Information System (CCRIS), 2018).

Tested on: rodent chemically induced tumor inhibition, incidence and multiplicity
Assay: CCRIS tumor inhibitor studies
Settings: Promoter: NONE USED

## C=C(C)[C@H]1CC=C(C)CC1
Carcinogen: 4-(METHYLNITROSAMINO)-1-(3-PYRIDYL)-1-BUTANONE, 64019-91-4, Dose [Inhibitor]: 0, 25 MG LIMONENE OIL 0.2 ML COTTONSEED OIL 1 HR PRIOR TO EACH CARCINOGEN DOSE (STUDY DURATION: 28 WK), Route [Inhibitor]: INTRAGASTRIC, Species: MOUSE, Strain/Sex: STRAIN-A/FEMALE, Target Tissue: Type of Lesion: FORESTOMACH: PAPILLOMA, Dose [Carcinogen]: 0.5 MG IN O.1 ML TRICAPRYLIN 2/WK FOR 8 WK
  tumour outcome (control, treated, inhibition, significance): 17%, 0%, 100%,
Carcinogen: 4-(METHYLNITROSAMINO)-1-(3-PYRIDYL)-1-BUTANONE, 64091-91-4, Dose [Inhibitor]: 0, 0.63% IN DIET FOR 17 WK BEGINNING 1 WK PRIOR TO CARCINOGEN DOSE (STUDY DURATION: 17 WK), Route [Inhibitor]: ORAL, Species: MOUSE, Strain/Sex: STRAIN-A/FEMALE, Target Tissue: Type of Lesion: LUNG: ADENOMA, Dose [Carcinogen]: 10 UMOL IN 0.1 ML SALINE ONCE
  tumour outcome (control, treated, inhibition, significance): 100%, 96%, 4%, not significant
Carcinogen: 4-(METHYLNITROSAMINO)-1-(3-PYRIDYL)-1-BUTANONE, 64091-91-4, Dose [Inhibitor]: 0, 25 MG IN 0.2 ML COTTONSEED OIL 1 HR PRIOR TO EACH CARCINOGEN DOSE (STUDY DURATION: 28 WK), Route [Inhibitor]: INTRAGASTRIC, Species: MOUSE, Strain/Sex: STRAIN-A/FEMALE, Target Tissue: Type of Lesion: FORESTOMACH: PAPILLOMA, Dose [Carcinogen]: 0.5 MG IN 0.1 ML TRICAPRYLIN 2/WK FOR 8 WK
  tumour outcome (control, treated, inhibition, significance): 90%, 0%, 100%, p<0.001
Carcinogen: 4-(METHYLNITROSAMINO)-1-(3-PYRIDYL)-1-BUTANONE, 64091-91-4, Dose [Inhibitor]: O, 25 MG LIMONENE FROM LEMON OIL IN 0.2 ML COTTONSEED OIL 1 HR PRIOR TO EACH CARCINOGEN DOSE (STUDY DURATION: 28 WK), Route [Inhibitor]: INTRAGASTRIC, Species: MOUSE, Strain/Sex: STRAIN-A/FEMALE, Target Tissue: Type of Lesion: FORESTOMACH: PAPILLOMA, Dose [Carcinogen]: 0.5 MG IN OIL ML TRICAPRYLIN 2/WK FOR 8 WK
  tumour outcome (control, treated, inhibition, significance): 17%, 0%, 100%, not calculated
Carcinogen: 7,12-DIMETHYLBENZ[A]ANTHRACENE, 57-97-6, Dose [Inhibitor]: 0, 1% IN DIET FOR 3 WK BEGINNING 2 WK PRIOR TO CARCINOGEN DOSE (STUDY DURATION: 20 WK), Route [Inhibitor]: ORAL, Species: RAT, Strain/Sex: WISTAR/FEMALE, Target Tissue: Type of Lesion: MAMMARY GLAND: CARCINOMA, Dose [Carcinogen]: 50 MG/KG IN SESAME OIL ONCE
  tumour outcome (control, treated, inhibition, significance): 98%, 96%, 2%, not significant
Carcinogen: 7,12-DIMETHYLBENZ[A]ANTHRACENE, 57-97-6, Dose [Inhibitor]: 0, 5% IN DIET BEGINNING POST CARCINOGEN TREATMENT AND CONTINUING FOR 25 WK (STUDY DURATION: 25 WK), Route [Inhibitor]: ORAL, Species: RAT, Strain/Sex: SPRAGUE-DAWLEY/FEMALE, Target Tissue: Type of Lesion: MAMMARY GLAND: TUMOR, Dose [Carcinogen]: 65 MG/KG IN SESAME OIL ONCE
  tumour outcome (control, treated, inhibition, significance): 100%, 97%, 3%, not significant
Carcinogen: 7,12-DIMETHYLBENZ[A]ANTHRACENE, 57-97-6, Dose [Inhibitor]: 0, 5% IN DIET FOR 1 WK PRIOR TO AND 1 WK POST CARCINOGEN TREATMENT (STUDY DURATION: 25 WK), Route [Inhibitor]: ORAL, Species: RAT, Strain/Sex: SPRAGUE-DAWLEY/FEMALE, Target Tissue: Type of Lesion: MAMMARY GLAND: TUMOR, Dose [Carcinogen]: 65 MG/KG IN SESAME OIL ONCE
  tumour outcome (control, treated, inhibition, significance): 100%, 88%, 12%, not significant
Carcinogen: 7,12-DIMETHYLBENZ[A]ANTHRACENE, 57-97-6, Dose [Inhibitor]: 0, 36 MMOL/KG IN DIET FOR 24 WK BEGINNING 2 WK PRIOR TO CARCINOGEN DOSE (STUDY DURATION: 24 WK), Route [Inhibitor]: ORAL, Species: RAT, Strain/Sex: SPRAGUE-DAWLEY/FEMALE, Target Tissue: Type of Lesion: MAMMARY GLAND: TUMOR, Dose [Carcinogen]: 65 MG/KG BW ONCE
  tumour outcome (control, treated, inhibition, significance): 91%, 75%, 18%, not significant
Carcinogen: BENZO[A]PYRENE, 50-32-8, Dose [Inhibitor]: 10 MG IN 0.1 ML ACETONE 3/WK ADMINISTERED SIMULTANEOUSLY WITH CARCINOGEN FOR DURATION OF STUDY (STUDY DURATION: 440 D), Route [Inhibitor]: DERMAL, Species: MOUSE, Strain/Sex: ICR/FEMALE, Target Tissue: Type of Lesion: SKIN: PAPILLOMA, Dose [Carcinogen]: 5 UG IN 0.1 ML ACETONE 3/WK FOR DURATION OF STUDY
  tumour outcome (control, treated, inhibition, significance): 16/50 (32%), 13/50 (26%), 19%, not calculated
Carcinogen: BENZO[A]PYRENE, 50-32-8, Dose [Inhibitor]: 10 MG IN 0.1 ML ACETONE 3/WK ADMINISTERED SIMULTANEOUSLY WITH CARCINOGEN FOR DURATION OF STUDY (STUDY DURATION: 440 D), Route [Inhibitor]: DERMAL, Species: MOUSE, Strain/Sex: ICR/FEMALE, Target Tissue: Type of Lesion: SKIN: SQUAMOUS CARCINOMA, Dose [Carcinogen]: 5 UG IN 0.1 ML ACETONE 3/WK FOR DURATION OF STUDY
  tumour outcome (control, treated, inhibition, significance): 12/50 (24%), 4/50 (8%), 67%, not calculated
Carcinogen: DIETHYLNITROSAMINE, 55-18-5, N-METHYL-N-NITROSOUREA, 684-93-5, N-BUTYL-N-(4-HYDROXYBUTYL)NITROSAMINE, 3817-11-6, 1, Carcinogen: DIETHYLNITROSAMINE, 55-18-5, N-METHYL-N-NITROSOUREA, 684-93-5, N-BUTYL-N-(4-HYDROXYBUTYL)NITROSAMINE, 3817-11-6, 1, Dose [Inhibitor]: 0, 0.5% IN DIET FOR 24 WK BEGINNING POST CARCINOGEN TREATMENT (STUDY DURATION: 28 WK), Route [Inhibitor]: ORAL, Species: RAT, Strain/Sex: F344/MALE, Target Tissue: Type of Lesion: KIDNEY: ADENOMA, Dose [Carcinogen]: 100 MG/KG DEN IP ONCE, 20 MG/KG MNU IP 2/WK FOR FIRST 2 WK, 0.05% BBN IN DRINKING WATER DURING FIRST 2 WK, 40 MG/KG D, Dose [Carcinogen]: 100 MG/KG DEN IP ONCE, 20 MG/KG MNU IP 2/WK FOR FIRST 2 WK, 0.05% BBN IN DRINKING WATER DURING FIRST 2 WK, 40 MG/KG D
  tumour outcome (control, treated, inhibition, significance): 4/19 (21%), 6/20 (30%), -43%, not significant
Carcinogen: DIETHYLNITROSAMINE, 55-18-5, N-METHYL-N-NITROSOUREA, 684-93-5, N-BUTYL-N-(4-HYDROXYBUTYL)NITROSAMINE, 3817-11-6, 1, Carcinogen: DIETHYLNITROSAMINE, 55-18-5, N-METHYL-N-NITROSOUREA, 684-93-5, N-BUTYL-N-(4-HYDROXYBUTYL)NITROSAMINE, 3817-11-6, 1, Dose [Inhibitor]: 0, 1% IN DIET FOR 24 WK BEGINNING POST CARCINOGEN TREATMENT (STUDY DURATION: 28 WK), Route [Inhibitor]: ORAL, Species: RAT, Strain/Sex: F344/MALE, Target Tissue: Type of Lesion: KIDNEY: ADENOMA, Dose [Carcinogen]: 100 MG/KG DEN IP ONCE, 20 MG/KG MNU IP 2/WK FOR FIRST 2 WK, 0.05% BBN IN DRINKING WATER DURING FIRST 2 WK, 40 MG/KG D, Dose [Carcinogen]: 100 MG/KG DEN IP ONCE, 20 MG/KG MNU IP 2/WK FOR FIRST 2 WK, 0.05% BBN IN DRINKING WATER DURING FIRST 2 WK, 40 MG/KG D
  tumour outcome (control, treated, inhibition, significance): 4/19 (21%), 5/19 (26%), -24%, not significant
Carcinogen: DIETHYLNITROSAMINE, 55-18-5, N-METHYL-N-NITROSOUREA, 684-93-5, N-BUTYL-N-(4-HYDROXYBUTYL)NITROSAMINE, 3817-11-6, 1, Carcinogen: DIETHYLNITROSAMINE, 55-18-5, N-METHYL-N-NITROSOUREA, 684-93-5, N-BUTYL-N-(4-HYDROXYBUTYL)NITROSAMINE, 3817-11-6, 1, Dose [Inhibitor]: 0, 2% IN DIET FOR 24 WK BEGINNING POST CARCINOGEN TREATMENT (STUDY DURATION: 28 WK), Route [Inhibitor]: ORAL, Species: RAT, Strain/Sex: F344/MALE, Target Tissue: Type of Lesion: KIDNEY: ADENOMA, Dose [Carcinogen]: 100 MG/KG DEN IP ONCE, 20 MG/KG MNU IP 2/WK FOR FIRST 2 WK, 0.05% BBN IN DRINKING WATER DURING FIRST 2 WK, 40 MG/KG D, Dose [Carcinogen]: 100 MG/KG DEN IP ONCE, 20 MG/KG MNU IP 2/WK FOR FIRST 2 WK, 0.05% BBN IN DRINKING WATER DURING FIRST 2 WK, 40 MG/KG D
  tumour outcome (control, treated, inhibition, significance): 4/19 (21%), 13/19 (68%), -224%, p<0.01
Carcinogen: METHYLCHOLANTHRENE, 56-49-5, Dose [Inhibitor]: 0, 0.5 ML 1/WK FOR 1 YR BEGINNING POST CARCINOGEN TREATMENT (STUDY DURATION: 24 MO), Route [Inhibitor]: GAVAGE, Species: MOUSE, Strain/Sex: SWISS/FEMALE, Target Tissue: Type of Lesion: LUNG: PAPILLARY ADENOMA AND ADENOCARCINOMA, Dose [Carcinogen]: 0.01 MG ON D 1, 7, 14 AND 21 AFTER BIRTH
  tumour outcome (control, treated, inhibition, significance): 7/11 (64%), 8/12 (67%), -5%, not calculated
Carcinogen: METHYLCHOLANTHRENE, 56-49-5, Dose [Inhibitor]: 0, 0.5 ML 1/WK FOR 1 YR BEGINNING POST CARCINOGEN TREATMENT (STUDY DURATION: 24 MO), Route [Inhibitor]: GAVAGE, Species: MOUSE, Strain/Sex: SWISS/MALE, Target Tissue: Type of Lesion: LIVER: HEPATOCELLULAR ADENOMA AND CARCINOMA, Dose [Carcinogen]: 0.01 MG ON D 1, 7, 14 AND 21 AFTER BIRTH
  tumour outcome (control, treated, inhibition, significance): 3/13 (23%), 2/14 (14%), 39%, not calculated
Carcinogen: METHYLCHOLANTHRENE, 56-49-5, Dose [Inhibitor]: 0, 0.5 ML 1/WK FOR 1 YR BEGINNING POST CARCINOGEN TREATMENT (STUDY DURATION: 24 MO), Route [Inhibitor]: GAVAGE, Species: MOUSE, Strain/Sex: SWISS/MALE, Target Tissue: Type of Lesion: LUNG: PAPILLARY ADENOMA AND ADENOCARCINOMA, Dose [Carcinogen]: 0.01 MG ON D 1, 7, 14 AND 21 AFTER BIRTH
  tumour outcome (control, treated, inhibition, significance): 10/13 (77%), 7/14 (50%), 35%, not calculated
